From paper PMC8536414, “The LC-MS/MS-Based Measurement of Isopimaric Acid in Rat Plasma and Application of Pharmacokinetics” (BioMed Research International, 2021)
Read-outs that look alike come from different tables or passages of the source.

What was measured:
[1] = Stability of IPA in rat plasma QC samples under storage conditions; type: in vitro ADME; details: for stability in rat plasma (in words): three QC concentrations; for Postpreparative, Measured: processed plasma sample; for Postpreparative, Measured / Long-term, Measured / Short-term, Measured / Three freeze-thaw, Measured: n = 5; for Long-term, Measured / Short-term, Measured / Three freeze-thaw, Measured: rat plasma
Method: IPA stability was examined by evaluating five replicate samples at the three QC concentration levels in a range of storage conditions. […] Processed sample stability was measured by incubating them for 24 h in the room temperature autosampler. In addition, long-term stability was measured following a 30-day storage period at -20°C, and freeze-thaw stability was measured by cycling samples from -20°C to 20°C three times. When the assay values associated with these samples were within a ±15% deviation from the nominal value, samples were considered to be stable.

[2] = Pharmacokinetic study of IPA in rats after i.v. or oral administration (LC-MS/MS of plasma, noncompartmental analysis); type: in vivo, Sprague-Dawley rats; details: for AUC(0-inf) / MRT / half-life / AUC(0-t) / bioavailability / CL/F / Tmax / T max1: rat; for AUC(0-t): read-out: AUC(0~24); for bioavailability: oral, read-out: absolute bioavailability; for Tmax: read-out: T max 2; for C max1 / C max2: rat plasma; for C max1: n = 5
Method: Male Sprague-Dawley rats (220-250 g) from Shanghai Slac Laboratory Animal Co., Ltd. (Shanghai, China) (2018(hu)-08-0013) were housed in a climate-controlled facility (22 ± 2°C, 46 ± 20% relative humidity, 12 h light/dark cycle) with unlimited food and water access. After a 7-day acclimatization period, 20 rats were randomly assigned to undergo the administration of IPA via p.o. administration (50, 100, or 200 mg/kg) or via i.v. injection (5 mg/kg) for pharmacokinetic analyses. All animal studies received approval from the Animal Ethics Committee of the Naval Military Medical University. After developing and validating the above LC-MS/MS approach, it was employed to assess the pharmacokinetics of IPA following its intravenous or oral administration to rats as per the approved protocols discussed above. Briefly, after acclimatization, rats were fasted for 12 h and then randomized to undergo treatment with a 5 mg/kg i.v. dose of IPA or with oral IPA doses of 50, 100, or 200 mg/kg (n = 5/group). All IPA solutions were prepared in physiological saline and thoroughly mixed with CMC-Na. Blood samples (~0.4 mL) from these rats were collected in heparinized tubes at 0, 0.083, 0.167, 0.25, 0.5, 0.75, 1, 2, 3, 4, 6, 8, and 12 h following i.v. injection or at 0.167, 0.333, 0.5, 0.75, 1,1.5, 2, 4, 6, 8, 12, and 24 h following oral administration. Blood samples were spun for 5 min at 1,500 × g, after which plasma was collected and stored at -20°C prior to analysis. Plasma IPA concentrations were determined using the calibration curve established above based on peak area ratios from individual injection samples. The mean residence time (MRT0-t), area under the blood concentration-time curve (AUC0-∞, AUC0-t), body clearance (CL/F), and elimination half-life (T1/2) were quantified with the DAS 3.2.6 program (Chinese Pharmacology Society) via a noncompartmental approach. Concentration-time curves were used to establish maximum concentration (Cmax) and time to maximum concentration (Tmax) values. Data are given as means ± standard deviation (S.D.). Absolute bioavailability (F %) was determined as follows: F% = AUC0 − ∞(p.o.) dose (i.v.)/AUC0 − ∞(i.v.) dose (p.o.) × 100%.

[3] = male, Sprague-Dawley, plasma, iv, i.v. 5 mg/kg
[4] = male, Sprague-Dawley, plasma, po, p.o. 50 mg/kg
[5] = male, Sprague-Dawley, plasma, po, p.o. 100 mg/kg
[6] = male, Sprague-Dawley, plasma, po, p.o. 200 mg/kg

Structure (SMILES): C=C[C@@]1(C)CC[C@H]2C(=CC[C@@H]3[C@]2(C)CCC[C@@]3(C)C(=O)O)C1 [IPA, isopimaric acid]
- stability in rat plasma (in words) ([1]; 3 rounds of freeze-thawing): remained stable
- stability in rat plasma (in words) ([1]; 3 h room temperature incubation): remained stable
- stability in rat plasma (in words) ([1]; 30 days of storage at -20°C): remained stable
- Postpreparative, Measured ([1]; spiked 10 ng·mL^−1, 24 h room temperature autosampler): 9.56 ± 0.88 ng/mL
- Postpreparative, Measured ([1]; spiked 400 ng·mL^−1, 24 h room temperature autosampler): 371.2 ± 1.44 ng/mL
- Postpreparative, Measured ([1]; spiked 2000 ng·mL^−1, 24 h room temperature autosampler): 2012 ± 0.12 ng/mL
- Long-term, Measured ([1]; spiked 10 ng·mL^−1, 30 days at -20°C): 10.79 ± 1.46 ng/mL
- Short-term, Measured ([1]; spiked 10 ng·mL^−1, room temperature): 9.65 ± 0.07 ng/mL
- Three freeze-thaw, Measured ([1]; spiked 10 ng·mL^−1, three cycles -20°C to 20°C): 10.27 ± 0.56 ng/mL
- Long-term, Measured ([1]; spiked 400 ng·mL^−1, 30 days at -20°C): 363.5 ± 1.82 ng/mL
- Short-term, Measured ([1]; spiked 400 ng·mL^−1, room temperature): 407.0 ± 0.34 ng/mL
- Three freeze-thaw, Measured ([1]; spiked 400 ng·mL^−1, three cycles -20°C to 20°C): 421.8 ± 1.08 ng/mL
- Long-term, Measured ([1]; spiked 2000 ng·mL^−1, 30 days at -20°C): 1908.3 ± 0.92 ng/mL
- Short-term, Measured ([1]; spiked 2000 ng·mL^−1, room temperature): 1840 ± 1.6 ng/mL
- Three freeze-thaw, Measured ([1]; spiked 2000 ng·mL^−1, three cycles -20°C to 20°C): 1967 ± 0.34 ng/mL
- postpreparation stability (in words) ([1]; room temperature for 24 h in the autosampler): remained stable
- AUC(0-inf) [2, 3]: 818 ± 66.2 ng·h/mL
- MRT [2, 3]: 1.4 ± 0.4 h
- half-life [2, 3]: 6.6 ± 5.9 h
- AUC(0-t) [2, 3]: 745 ± 140 ng·h/mL
- bioavailability ([2]; male, Sprague-Dawley, plasma, p.o. 50 mg/kg vs i.v. 5 mg/kg): 11.9%
- bioavailability ([2]; male, Sprague-Dawley, plasma, p.o. 100 mg/kg vs i.v. 5 mg/kg): 17.5%
- AUC(0-inf) [2, 4]: 923 ± 614 ng·h/mL
- MRT [2, 4]: 9.3 ± 1.3 h
- half-life [2, 4]: 10.4 ± 9.8 h
- AUC(0-t) [2, 4]: 887 ± 636 ng·h/mL
- CL/F ([2]; male, Sprague-Dawley, plasma, po, p.o. 50 mg/kg, read-out: CL/F (converted)): 1170 mL/min/kg
- Tmax [2, 4]: 6.4 ± 2.6 h
- AUC(0-inf) [2, 5]: 2640 ± 1640 ng·h/mL
- MRT [2, 5]: 7.6 ± 1.3 h
- half-life [2, 5]: 5.5 ± 2.3 h
- AUC(0-t) [2, 5]: 2600 ± 1630 ng·h/mL
- CL/F ([2]; male, Sprague-Dawley, plasma, po, p.o. 100 mg/kg, read-out: CL/F (converted)): 983 mL/min/kg
- Tmax [2, 5]: 6 ± 1.4 h
- AUC(0-inf) [2, 6]: 3190 ± 1720 ng·h/mL
- MRT [2, 6]: 7.9 ± 0.5 h
- half-life [2, 6]: 3.6 ± 1 h
- AUC(0-t) [2, 6]: 3180 ± 1720 ng·h/mL
- CL/F ([2]; male, Sprague-Dawley, plasma, po, p.o. 200 mg/kg, read-out: CL/F (converted)): 1330 mL/min/kg
- Tmax [2, 6]: 8.8 ± 1.1 h
- C max1 ([2]; i.v. 5 mg/kg): 1740.1 ± 456.0 ng/mL
- C max2 ([2]; p.o. 50 mg/kg): 61.6 ± 46.2 ng/mL
- C max1 ([2]; p.o. 50 mg/kg): 83.7 ± 32.9 ng/mL
- C max2 ([2]; p.o. 100 mg/kg): 284.9 ± 183.4 ng/mL
- C max1 ([2]; p.o. 100 mg/kg): 296.4 ± 75.1 ng/mL
- C max2 ([2]; p.o. 200 mg/kg): 286.9 ± 217.2 ng/mL
- C max1 ([2]; p.o. 200 mg/kg): 246.23 ± 94.4 ng/mL
- CL/F ([2]; i.v. 5 mg/kg): 6.1 ± 0.5 L/h
- T max1 ([2]; i.v. 5 mg/kg): 0 ± 0 h
- T max1 ([2]; p.o. 50 mg/kg): 0.9 ± 0.1 h
- T max1 ([2]; p.o. 100 mg/kg): 0.6 ± 0.3 h
- T max1 ([2]; p.o. 200 mg/kg): 0.65 ± 0.1 h
